Test results taken from PubChem BioAssay AID1919004 (Molecular Pharmacology Branch, DTP, NCI, 2023).

System: 883617-216-R-J1-PDC complex spheroids, growth, % test/control
Assay: Anticancer human tumor 883617-216-R-J1-PDC patient-derived bladder carcinoma cell line growth inhibition [AhR]
Details: for IC50: curve of first compound; for viability, T/C: stronger effect = lower value
How it was run: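 Agents were dosed in half-log steps down from roughly clinical Cmax, or from 10 microM where Cmax was unknown, alone and with AhR antagonists. Read-out: percent test/control growth of tumor spheroids containing HUVEC and MSC stromal cells.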

[1] = second compound 0.1 µM, first compound 0.0316 µM
[2] = second compound 0.1 µM, first compound 0.1 µM
[3] = second compound 0.316 µM, first compound 0.0316 µM
[4] = second compound 0.316 µM, first compound 0.1 µM
[5] = second compound 1 µM, first compound 0.0316 µM
[6] = second compound 1 µM, first compound 0.1 µM
[7] = second compound 3.16 µM, first compound 0.0316 µM
[8] = second compound 3.16 µM, first compound 0.1 µM
[9] = second compound 10 µM, first compound 0.0316 µM
[10] = second compound 10 µM, first compound 0.1 µM
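Also: exposure lasted 7 days after dosing on day 3 of spheroid growth.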

## CC1(C)CCC(CN2CCN(c3ccc(C(=O)NS(=O)(=O)c4ccc(NCC5CCOCC5)c([N+](=O)[O-])c4)c(Oc4cnc5[nH]ccc5c4)c3)CC2)=C(c2ccc(Cl)cc2)C1 + Cc1cncc(-c2nc(NCCc3c[nH]c4ccccc34)c3ncn(C(C)C)c3n2)c1
Second compound 0.1 µM
  IC50: 6.16 µM
Second compound 0.316 µM
  IC50: 6.29 µM
Second compound 1 µM
  IC50: 5.92 µM
Second compound 3.16 µM
  IC50: 8.25 µM
Second compound 10 µM
  IC50: > 10 µM
[1]
  viability, T/C: 85.7%
[2]
  viability, T/C: 88.8%
Second compound 0.1 µM, first compound 0.316 µM
  viability, T/C: 90%
Second compound 0.1 µM, first compound 1 µM
  viability, T/C: 78.6%
Second compound 0.1 µM, first compound 3.16 µM
  viability, T/C: 80.4%
Second compound 0.1 µM, first compound 10 µM
  viability, T/C: 28.5%
[3]
  viability, T/C: 97.3%
[4]
  viability, T/C: 99.2%
Second compound 0.316 µM, first compound 0.316 µM
  viability, T/C: 94.2%
Second compound 0.316 µM, first compound 1 µM
  viability, T/C: 88.5%
Second compound 0.316 µM, first compound 3.16 µM
  viability, T/C: 82.2%
Second compound 0.316 µM, first compound 10 µM
  viability, T/C: 29%
[5]
  viability, T/C: 86.5%
[6]
  viability, T/C: 89.7%
Second compound 1 µM, first compound 0.316 µM
  viability, T/C: 87.7%
Second compound 1 µM, first compound 1 µM
  viability, T/C: 84.5%
Second compound 1 µM, first compound 3.16 µM
  viability, T/C: 82.5%
Second compound 1 µM, first compound 10 µM
  viability, T/C: 23%
[7]
  viability, T/C: 99.1%
[8]
  viability, T/C: 108%
Second compound 3.16 µM, first compound 0.316 µM
  viability, T/C: 115%
Second compound 3.16 µM, first compound 1 µM
  viability, T/C: 97.2%
Second compound 3.16 µM, first compound 3.16 µM
  viability, T/C: 106%
Second compound 3.16 µM, first compound 10 µM
  viability, T/C: 38.9%
[9]
  viability, T/C: 49.4%
[10]
  viability, T/C: 52.6%
Second compound 10 µM, first compound 0.316 µM
  viability, T/C: 57.1%
Second compound 10 µM, first compound 1 µM
  viability, T/C: 61.4%
Second compound 10 µM, first compound 3.16 µM
  viability, T/C: 72%
Second compound 10 µM, first compound 10 µM
  viability, T/C: 37.3%

## CCN(c1cc(-c2ccc(CN3CCOCC3)cc2)cc(C(=O)NCc2c(C)cc(C)[nH]c2=O)c1C)C1CCOCC1 + Cc1cncc(-c2nc(NCCc3c[nH]c4ccccc34)c3ncn(C(C)C)c3n2)c1
Second compound 0.1 µM
  IC50: > 3 µM
Second compound 0.316 µM
  IC50: > 3 µM
Second compound 1 µM
  IC50: > 3 µM
Second compound 3.16 µM
  IC50: > 3 µM
Second compound 10 µM
  IC50: < 0.00949 µM
Second compound 0.1 µM, first compound 0.00949 µM
  viability, T/C: 93.3%
Second compound 0.1 µM, first compound 0.03 µM
  viability, T/C: 109%
Second compound 0.1 µM, first compound 0.0949 µM
  viability, T/C: 94.1%
Second compound 0.1 µM, first compound 0.3 µM
  viability, T/C: 96.6%
Second compound 0.1 µM, first compound 0.949 µM
  viability, T/C: 98.2%
Second compound 0.1 µM, first compound 3 µM
  viability, T/C: 91.6%
Second compound 0.316 µM, first compound 0.00949 µM
  viability, T/C: 103%
Second compound 0.316 µM, first compound 0.03 µM
  viability, T/C: 94.4%
Second compound 0.316 µM, first compound 0.0949 µM
  viability, T/C: 97.1%
Second compound 0.316 µM, first compound 0.3 µM
  viability, T/C: 96.2%
Second compound 0.316 µM, first compound 0.949 µM
  viability, T/C: 98.6%
Second compound 0.316 µM, first compound 3 µM
  viability, T/C: 96.4%
Second compound 1 µM, first compound 0.00949 µM
  viability, T/C: 103%
Second compound 1 µM, first compound 0.03 µM
  viability, T/C: 102%
Second compound 1 µM, first compound 0.0949 µM
  viability, T/C: 110%
Second compound 1 µM, first compound 0.3 µM
  viability, T/C: 105%
Second compound 1 µM, first compound 0.949 µM
  viability, T/C: 97.8%
Second compound 1 µM, first compound 3 µM
  viability, T/C: 107%
Second compound 3.16 µM, first compound 0.00949 µM
  viability, T/C: 93.7%
Second compound 3.16 µM, first compound 0.03 µM
  viability, T/C: 102%
Second compound 3.16 µM, first compound 0.0949 µM
  viability, T/C: 112%
Second compound 3.16 µM, first compound 0.3 µM
  viability, T/C: 96.5%
Second compound 3.16 µM, first compound 0.949 µM
  viability, T/C: 107%
Second compound 3.16 µM, first compound 3 µM
  viability, T/C: 110%
Second compound 10 µM, first compound 0.00949 µM
  viability, T/C: 52.3%
Second compound 10 µM, first compound 0.03 µM
  viability, T/C: 46.9%
Second compound 10 µM, first compound 0.0949 µM
  viability, T/C: 47.2%
Second compound 10 µM, first compound 0.3 µM
  viability, T/C: 43.2%
Second compound 10 µM, first compound 0.949 µM
  viability, T/C: 27.3%
Second compound 10 µM, first compound 3 µM
  viability, T/C: 15.5%

## Cn1ncnc1C1c2n[nH]c(=O)c3cc(F)cc(c23)NC1c1ccc(F)cc1 (stereo not given) + Cc1cncc(-c2nc(NCCc3c[nH]c4ccccc34)c3ncn(C(C)C)c3n2)c1
Second compound 0.1 µM
  IC50: > 0.1 µM
Second compound 0.316 µM
  IC50: > 0.1 µM
Second compound 1 µM
  IC50: > 0.1 µM
Second compound 3.16 µM
  IC50: > 0.1 µM
Second compound 10 µM
  IC50: > 0.1 µM
Second compound 0.1 µM, first compound 0.000316 µM
  viability, T/C: 97.3%
Second compound 0.1 µM, first compound 0.001 µM
  viability, T/C: 97.5%
Second compound 0.1 µM, first compound 0.00316 µM
  viability, T/C: 82.8%
Second compound 0.1 µM, first compound 0.01 µM
  viability, T/C: 80.6%
[1]
  viability, T/C: 78%
[2]
  viability, T/C: 75.2%
Second compound 0.316 µM, first compound 0.000316 µM
  viability, T/C: 90.7%
Second compound 0.316 µM, first compound 0.001 µM
  viability, T/C: 97.4%
Second compound 0.316 µM, first compound 0.00316 µM
  viability, T/C: 90.1%
Second compound 0.316 µM, first compound 0.01 µM
  viability, T/C: 86.5%
[3]
  viability, T/C: 90.1%
[4]
  viability, T/C: 80.9%
Second compound 1 µM, first compound 0.000316 µM
  viability, T/C: 100%
Second compound 1 µM, first compound 0.001 µM
  viability, T/C: 101%
Second compound 1 µM, first compound 0.00316 µM
  viability, T/C: 97.2%
Second compound 1 µM, first compound 0.01 µM
  viability, T/C: 87.5%
[5]
  viability, T/C: 82.7%
[6]
  viability, T/C: 88.7%
Second compound 3.16 µM, first compound 0.000316 µM
  viability, T/C: 106%
Second compound 3.16 µM, first compound 0.001 µM
  viability, T/C: 106%
Second compound 3.16 µM, first compound 0.00316 µM
  viability, T/C: 102%
Second compound 3.16 µM, first compound 0.01 µM
  viability, T/C: 103%
[7]
  viability, T/C: 98.2%
[8]
  viability, T/C: 95.1%
Second compound 10 µM, first compound 0.000316 µM
  viability, T/C: 51%
Second compound 10 µM, first compound 0.001 µM
  viability, T/C: 56.3%
Second compound 10 µM, first compound 0.00316 µM
  viability, T/C: 56.5%
Second compound 10 µM, first compound 0.01 µM
  viability, T/C: 61.2%
[9]
  viability, T/C: 56.3%
[10]
  viability, T/C: 62.6%
